Experimental data as given in patent US20210002689A1, “METHOD FOR DETECTING DIFFERENT PROPERTIES IN A MICROORGANISM POPULATION BY OPTICALLY INDUCED DIELECTROPHORETIC FORCE” (Chang Gung University, priority 2019, published 2021).
Values after ≈ are worked out from the molar mass of the structure shown.

Legend:
[1] = test system: Staphylococcus aureus strains; test: Vancomycin Etest; assay type: cell-based; conditions: 125 clinical Staphylococcus aureus strains selected for PAP-AUC (35 hVISA, 90 VSSA); read-out: minimal inhibition concentration
Description: Firstly, the microorganism sample solution 10 is cultured on a blood agar plate. Next, the microorganism sample solution 10 is cultured in 5% carbon dioxide concentration and 37° C. for 16-18 hours. After being cultured, a single strain group is taken from the blood agar plate and is subjected to a matrix-assisted laser desorption ionization time-of-flight (MALDI-TOF) for strains identification. With respect to selecting strains to be identified as Staphylococcus aureus strains, Vancomycin Etest is used in which 125 strains having a minimal inhibition concentration of 2-4 μg/mL are selected for PAP-AUC.

[2] = test system: E. coli ATCC® 35218; conditions: cited from earlier work
[3] = test system: E. coli ATCC® 25922; conditions: cited from earlier work
[4] = test system: E. coli ATCC® 35218; test: ODEP force analysis after subjecting to ampicillin; assay type: cell-based, Escherichia coli; conditions: ampicillin 0, 4, 8 or 16 μg/ml, cultured 1.5 hours, FIG. 5
From the text: (§1) Referring to FIG. 1 again, after E. coli ATCC® 35218 and E. coli ATCC® 25922 have been activated, they are made into solutions having bacteria for subsequent antibiotics processing. Steps of making solutions having bacteria are described in detail below: selecting a plurality of activated large E. coli strains; dissolving it in normal saline which is a solution of sodium chloride at 0.9% concentration; adjusting its turbidity to 0.5 McFarland to make the microorganism sample solution 10; in each solution having bacteria, adding different amounts of ampicillin antibiotics powder to make a solution having antibiotics concentration of 0 μg/ml, 4 μg/ml, 8 μg/ml or 16 μg/ml, and finally, culturing each solution of different antibiotics concentration in 5% carbon dioxide concentration and 37° C. for 1.5 hours to make the microorganism sample solution to be tested 14.
(§2) Referring to FIGS. 1 to 4 again, an injection pump is used to inject the microorganism sample solution to be tested 14 into the ODEP device 20 via the sample injection hole 221. Electrical properties (e.g., conduction or polarizability) differences are generated because E. coli ATCC® 35218 and E. coli ATCC® 25922 in the microorganism sample solution to be tested 14 have been subjected to ampicillin. […]

[5] = test system: E. coli ATCC® 25922; test: ODEP force analysis after subjecting to ampicillin; assay type: cell-based, Escherichia coli; conditions: ampicillin of gradually increased concentration (up to 16 μg/ml), cultured 1.5 hours, FIG. 5
From the text: as §1, §2

Question: For `CN[C@H](CC(C)C)C(=O)N[C@H]1C(=O)N[C@@H](CC(N)=O)C(=O)N[C@H]2C(=O)N[C@H]3C(=O)N[C@H](C(=O)N[C@H](C(=O)O)c4cc(O)cc(O)c4-c4cc3ccc4O)[C@H](O)c3ccc(c(Cl)c3)Oc3cc2cc(c3O[C@@H]2O[C@H](CO)[C@@H](O)[C@H](O)[C@H]2O[C@H]2C[C@](C)(N)[C@H](O)[C@H](C)O2)Oc2ccc(cc2Cl)[C@H]1O` [Vancomycin], which MIC [1] is on record?
Answer: 2 to 4 µg/mL (≈ 1.38 to 2.76 µM)

Question: Which results are given for `CC1(C)S[C@@H]2[C@H](NC(=O)[C@H](N)c3ccccc3)C(=O)N2[C@H]1C(=O)O` [ampicillin]?
Answer: minimal inhibition concentration [2]: greater than 32 μg/ml; minimal inhibition concentration [3]: 2 to 8 µg/mL; force generated by light (ODEP force) [4]: 220-260 μm/sec; force generated by light (ODEP force) [5]: 100 μm/sec
